According to patent US9359281B2, “Enantiomers of 2-hydroxy derivatives of fatty acids” (UNIVERSITAT DE LES ILLES BALEARS, priority 2011, dated 2016):

What follows are molecules tested on A549 cells (assay: Cell growth inhibition, A549). Details: A549, sodium salt form.
Type: cell-based, human
Excerpt: At this respect, concentrations which inhibit growth of tumour cells (IC50) are lower for the enantiomer S ([−]) in all studied tumour lines (Table 5). […] In all of the cases, the molecules employed were in the form of sodium salt.

SMILES	IC50 [µM]
CC/C=C\C/C=C\C/C=C\CCCCCCC(O)C(=O)O (racemic) [Racemic 2OH18:3a, 2-hydroxy-α-linoleic acid]	219 ± 15.4
CCCCCC/C=C\CCCCCCC(O)C(=O)O (stereo not drawn) [[+]2OH16:1] [2-hydroxypalmitoleic acid]	299 ± 34.2
CCCCC/C=C\C/C=C\CCCCCCC(O)C(=O)O (stereo not drawn) [[+]2OH18:2] [2-hydroxylinoleic acid]	186 ± 21.9
CC/C=C\C/C=C\C/C=C\CCCCCCC(O)C(=O)O (stereo not drawn) [[−]2OH18:3a] [2-hydroxy-α-linoleic acid]	146 ± 10.9
CCCCC/C=C\C/C=C\C/C=C\CCCC(O)C(=O)O (stereo not drawn) [[−]2OH18:3g] [2-hydroxy-γ-linoleic acid]	155 ± 7.5

Continued, values first:

IC50 [µM]	SMILES
206 ± 21.7	CCCCC/C=C\C/C=C\C/C=C\CCCC(O)C(=O)O (racemic) [Racemic 2OH18:3g, 2-hydroxy-γ-linoleic acid]
351 ± 22.7	CC/C=C\C/C=C\C/C=C\CCCCCCC(O)C(=O)O (stereo not drawn) [[+]2OH18:3a] [2-hydroxy-α-linoleic acid]
342 ± 31.5	CCCCC/C=C\C/C=C\C/C=C\CCCC(O)C(=O)O (stereo not drawn) [[+]2OH18:3g] [2-hydroxy-γ-linoleic acid]
110 ± 14	CCCCCC/C=C\CCCCCCC(O)C(=O)O (stereo not drawn) [[−]2OH16:1] [2-hydroxypalmitoleic acid]
69.9 ± 11.2	CCCCC/C=C\C/C=C\CCCCCCC(O)C(=O)O (stereo not drawn) [[−]2OH18:2] [2-hydroxylinoleic acid]

Same assay, conditions: Homo sapiens, A549, A549, sodium salt form

IC50 [µM]	SMILES
193 ± 9.3	CCCCCC/C=C\CCCCCCC(O)C(=O)O (racemic) [Racemic 2OH16:1, 2-hydroxypalmitoleic acid]
105 ± 4.1	CCCCC/C=C\C/C=C\CCCCCCC(O)C(=O)O (racemic) [Racemic 2OH18:2, 2-hydroxylinoleic acid]
